How the values were obtained:
[1] = test system: Porcine smooth muscle cells (PSMC); assay: Chemotactic assay on PSMC (modified Boyden chamber); assay type: cell-based; details: for reversal of the anti-chemotactic effect of 17βE on PSMC: antagonist 10^−7M before 17βE 10^−8M, PDGF-BB 10 ng/ml
Experimental: Cell migration was evaluated using a modified Boyden 48-well microchamber kit (NeuroProbe, Cabin John, MD.). Near confluent EC and PSMC were rinsed with DMEM and trypsinized. Cells were resuspended in DMEM, 5% FBS, and antibiotics, and a cell count was obtained. […] ER antagonists were added 5 minutes before 17βE. Cells were harvested by trypsinization and resuspended in DMEM, 1% FBS, and antibiotics at a concentration of 5×10^5 cells/ml. […] The two sections of the system were separated by a porous polycarbonate filter (5-μm pores), pre-treated with a gelatine solution (1.5 mg/ml), and assembled. Five hours post incubation at 37° C., the nonmigrated cells were scraped with a plastic policeman, and the migrated cells were stained using a Quick-Diff solution. The filter was then mounted on a glass slide, and migrated cells were counted using a microscope adapted to a video camera to obtain a computer-digitized image.
Cell migration was evaluated using a modified Boyden 48-well microchamber kit (NeuroProbe, Cabin John, MD.). Near confluent PAEC and PSMC were rinsed with DMEM and trypsinized. Cells were resuspended in DMEM, 5% FBS, and antibiotics, and a cell count was obtained. PAEC and PSMC were seeded at 2.5×10^5 cells/well of 6-well tissue culture plates; stimulated for 24 hours in DMEM, 5% FBS, and antibiotics with or without antisense oligomers (10^−6 mol/L) and starved for 48 hours in DMEM, 0.1% FBS, and antibiotics with or without antisense oligomers (10^−6 mol/L daily) with or without 17βE (10^−8 mol/L). Cells were harvested by trypsinization and resuspended in DMEM, 1% FBS, and antibiotics at a concentration of 5×10^5 cells/mL. Fifty μL of this cell suspension with or without antisense oligomers (10^−6 mol/L) treated with or without 17βE (10^−8 mol/L) was added in the higher-chamber of the modified Boyden chamber apparatus, and the lower chamber was filled with DMEM, 1% FBS, antibiotics plus the desired concentration of agonist either 17βE (10^−8 mol/L) or platelet-derived growth factor-BB (PDGF-BB). The 2 sections of the system were separated by a porous polycarbonate filter (5-μm pores size), pretreated with a gelatine solution (1.5 mg/mL), and assembled. Five hours postincubation at 37° C., the non-migrated cells were scraped with a plastic policeman, and the migrated cells were stained using a Quick-Diff solution (Shandon Inc). The filter was then mounted on a glass slide, and migrated cells were counted using a microscope adapted to a video camera to obtain a computer-digitized image.

p38 MAPK = assay: Western blot of p38 MAPK phosphorylation in PSMC; assay type: cell-based, porcine; details: for reversal of the effect of 17βE on p38 MAPK induced by PDGF-BB: antagonist 10^−7M
Experimental: Confluent PAEC and PSMC were starved for 7 hours in DMEM and antibiotics. Culture medium was removed, and cells were rinsed twice with ice-cold DMEM. PSMC were incubated on ice in DMEM with or without 17βE (10^−8M) for 30 min, incubated at 37° C. for 5, 10, 15 and 30 min, then brought back on ice. Cell were then rinsed with cold DMEM, incubated on ice in DMEM, bovine serum albumin (1 mg/ml), PDGF-BB (10 ng/ml) for 30 min, incubated at 37° C. for 5 min, and then brought back on ice. PAEC were incubated on ice in DMEM with or without 17βE (10^−7M) for 30 min, then incubated at 37° C. for 5, 10, 15 and 30 min and brought back on ice. […] Total proteins were prepared by the addition of 500 μl of lysis buffer containing phenylmethylsulfonyl fluoride 1 mM, leupeptin 10 μg/ml, aprotinin 30 μg/ml, and NaVO3 1 mM (Sigma). Plates were incubated at 4° C. for 30 min and scraped, and the protein concentration was determined with a Bio-Rad protein kit (Bio-Rad, Hercules, Calif.). Same protein quantity for each cell type and condition were dissolved in Laemmli's buffer, boiled for 5 min in reducing conditions, separated by a 10% gradient SDS-PAGE (Protean II kit; Bio-Rad), and transblotted onto a 0.45-μm polyvinylidene difluoride membranes (Millipore Corp., Bedford, Mass.). The membranes were blocked in 5% Blotto-TTBS (5% nonfat dry milk; Bio-Rad), 0.05% Tween 20, 0.15 M NaCl, 25 mM Tris-HCl, pH 7.5) for 1 h at room temperature with gentle agitation and incubated overnight at 4° C. in 0.5% Blotto-TTBS with the addition of an anti-phospho p42/44 MAPK or an anti-phospho p38 MAPK rabbit polyclonal antiserums (α-pp42/44; dilution of 1:10 000, and α-pp38; dilution 1:5000, New England BioLabs, Beverly, Mass.). Membranes were washed with TTBS, and incubated at room temperature with an anti-rabbit IgG antibody coupled to horseradish peroxidase (dilution 1:10 000–1:20 000, Santa Cruz Biotechnology, Santa Cruz, Calif.) in 0.5% Blotto-TTBS for 30 min. […] Kaleidoscope molecular weight and SDS-plyacrylamide gel electrophoresis broad range marker proteins (Bio-Rad) were used as standards for SDS-plyacrylamide gel electrophoresis. Digital image densitometry (PDI Bioscience, Aurora, ON) was performed on x-ray film to determine relative percentages of p42/44 and p38 MAPK phosphorylation.
Confluent PAEC and PSMC were preteated with or without antisense sequences as described above for Western Blot analysis. Cells were rinsed twice with ice-cold DMEM. PSMC and PAEC were stimulated with or without 17βE (10^−8 mol/L) as previously described (Geraldes P). Briefly, PSMC were incubated on ice in DMEM with or without 17βE (10^−8 mol/L) for 30 minutes, incubated at 37° C. for 30 minutes, then brought back on ice. Cells were then rinsed with cold DMEM, incubated on ice in DMEM, bovine serum albumin (1 mg/mL), PDGF-BB (10 ng/mL) for 30 minutes, incubated at 37° C. for 5 and 30 minutes, and then brought back on ice. PAEC were incubated on ice in DMEM with or without 17βE (10^−8 mol/L) for 30 minutes, then incubated at 37° C. for 5 and 30 minutes and brought back on ice. Total proteins were prepared-by the addition of 500 μL of lysis buffer, incubated at 4° C. for 30 minutes and scraped to collect the proteins. Same quantity of protein was separated by a 10% gradient SDS-PAGE (Protean II kit; Bio-Rad), and transblotted onto a 0.45-μm polyvinylidene difluoride membranes (Millipore Corp.). The membranes were blocked for 1 hour at room temperature with gentle agitation and incubated overnight at 4° C. in 0.5% Blotto-TTBS with the addition of an antiphospho p42/44 MAPK or an antiphospho p38 MAPK rabbit polyclonal antiserums (α-pp42/44; dilution of 1:10000, and α-pp38; dilution 1:5 000, New England BioLabs, Beverly, Mass.). Membranes were washed with TTBS, and incubated at room temperature with an anti-rabbit IgG antibody coupled to horseradish peroxidase (dilution 1:10 000–1:20 000, Santa Cruz Biotechnology) in 0.5% Blotto-TTBS for 30 minutes. […]

SMILES | reversal of the anti-chemotactic effect of 17βE on PSMC [1] | reversal of the effect of 17βE on p38 MAPK induced by PDGF-BB (p38 MAPK; PDGF-BB 30 min) [%] | inhibition of the chemotactic effect of PDGF-BB (10 ng/mL) on PSMC ([1]; 17βE 1^−8 mol/L as printed, Example 2) | inhibition of the chemotactic effect of PDGF-BB (10 ng/ml) on PSMC ([1]; 17βE 10^−8M, Example 1) | reversal of PDGF-BB-increased p38 MAPK phosphorylation (p38 MAPK; 17βE 10^−8 mol/L 30 minutes, Example 2) | inhibition of PDGF-BB-mediated p38 MAPK phosphorylation (p38 MAPK; 17βE (10^−8M) pretreatment 30 minutes, PDGF-BB 30 min) [%] | reduction of PDGF-BB induced phosphorylation of p38 MAPK (p38 MAPK; 17βE for 30 min) [%] | change in basal phosphorylation of p38 MAPK (p38 MAPK; substance alone, data not shown)
CC/C(=C(\c1ccc(O)cc1)c1ccc(OCCN(C)C)cc1)c1ccccc1 [4-OHT, 4-OH-Tamoxifen] | reversed completely | 53 | – | – | – | – | – | –
C[C@]12CC[C@@H]3c4ccc(O)cc4CC[C@H]3[C@@H]1CC[C@@H]2O [17βE, 17-beta-estradiol] | – | – | inhibited completely | inhibited completely | reversed | 85 | 85 | did not observe any change
O=C(c1ccc(OCN2CCCCC2)cc1)c1c(-c2ccc(O)cc2)sc2cc(O)ccc12 [Ral, Raloxifen] | reversed completely | 32 | – | – | – | – | – | –
CC/C(=C(\c1ccccc1)c1ccc(OCCN(C)C)cc1)c1ccccc1 [Tam, Tamoxifen] | reversed completely | 51 | – | – | – | – | – | –

From patent US7235534B2, “Antisense strategy to modulate estrogen receptor response (ER α and/or ER β )” (Institut de Cardiologie de Montreal, priority 2001, dated 2007)
